Tested on: human endothelial cell-derived tubule formation
Assay: In vitro angiogenesis assay, endothelial cell-derived tubule formation in co-culture with human fibroblasts
Assay type: cell-based
Conditions: tubule formation at day 11, CD31 immunostaining, with and without VEGF; FIG. 4
Experimental: An in vitro angiogenesis assay based on human endothelial cell-derived tubule formation (TCS Biologicals) in a co-culture with human fibroblasts was used to investigate the effects of selected peptides on angiogenesis. The peptides, together with VEGF and other factors were added at the start of the experiment and at each medium change at days 4, 7 and 9. At day 11, the cultures were fixed with 70% ethanol for 30 min at room temperature and subsequently subjected to immunostaining for the endothelial cell adhesion molecule CD31. Fixed cells were incubated with the primary antibody (mouse anti-human CD31) for 1 h at 37° C., washed 3 times in blocking buffer (PBS containing 1% BSA), and then incubated with the secondary antibody (goat anti-mouse IgG conjugated to alkaline phosphatase) for 1 h at 37° C. After 3 washes in distilled water, the cells were finally incubated with the substrate solution for 10 min at 37° C. Immunostaining was observed and photographed using an inverted Zeiss microscope (Axiovert CFL25) fitted with a ×4 objective lens. […] A, VEGF released from untreated control during 11 days, measured by specific immunoassay; B, untreated control; C, VEGF; D, peptide 121–132; E, VEGF in the presence of peptide 121–132; F, peptide 125–136; and G, VEGF in the presence of peptide 125–136.

## RKRKKSR [SEQ ID NO:21, 7-mer truncated derivative of the 12-mer V125–136 protein]
  inhibition of angiogenesis (Chalkley count), potency compared with the 12-mer: inhibits angiogenesis with similar potency to the 12-mer
